Where a SMILES comes first, the peptide text is derived from it. [ ]: non-standard residue; d: D form. ξ: configuration not given here. NMeTyr(3-tBu) = CN[C@@H](Cc1ccc(O)c(C(C)(C)C)c1)C(=O)O; ξNMeTyr(3-tBu) = CNC(Cc1ccc(O)c(C(C)(C)C)c1)C(=O)O; Tyr(3-tBu) = CC(C)(C)c1cc(C[C@H](N)C(=O)O)ccc1O; Phe(4-Cl) = N[C@@H](Cc1ccc(Cl)cc1)C(=O)O; Phe(4-F) = N[C@@H](Cc1ccc(F)cc1)C(=O)O; NMeIle(3ξ) = CCC(C)[C@H](NC)C(=O)O; ξW = NC(Cc1c[nH]c2ccccc12)C(=O)O; NMeNva = CCC[C@H](NC)C(=O)O; NMeV = CN[C@H](C(=O)O)C(C)C

Consider twelve compounds from patent US7553969B1, “Substituted phenethylamine derivatives” (Chugai Seiyaku Kabushiki Kaisha, priority 1999, dated 2009).

Assay [1] has as its system specimen of longitudinal muscle in the duodenum extracted from a rabbit (motilin-induced contraction). The experiment in a line: Action on the motilin-induced contraction of a specimen of longitudinal muscle in the duodenum extracted from a rabbit. As to conditions: Oryctolagus cuniculus, organ bath, Krebs solution 28° C., read-out: Contraction suppressing test, pA2 (converted). The method, then:
Action on the Contraction of a Specimen of Longitudinal Muscle in the Duodenum Extracted from a Rabbit
The action on the motilin-induced contraction of a specimen of longitudinal muscle in the duodenum extracted from a rabbit was investigated by the following method. A duodenum specimen (5×15 mm) extracted from a slaughtered rabbit was suspended in an organ bath (10 ml) such that the longitudinal muscle would run vertically; the bath was filled with a Krebs solution kept at 28° C. A mixed gas (95% O2 and 5% CO2) was continuously bubbled into the Krebs solution and the contraction of the duodenum specimen was recorded isotonically (with a 1-g load) via an isotonic transducer (ME-3407, ME Commercial, Tokyo, Japan). The degree of contraction was expressed in relative values, with the contraction by acetylcholine at a dose of 10^−4 M being taken as 100%. The activity of the compound was calculated as pA2 value indicating its effect on the dose-dependent muscle contraction by the motilin put into the organ bath.

The target of a further assay is T1, motilin receptor (Oryctolagus cuniculus, UniProt G1T803).
T1 construct: homogenized in 50 mM Tris buffer to prepare a protein sample; from tissue; host or cells: rabbit duodenum homogenate (mucous membrane separated)
T1 sequence (G1T803 1-400): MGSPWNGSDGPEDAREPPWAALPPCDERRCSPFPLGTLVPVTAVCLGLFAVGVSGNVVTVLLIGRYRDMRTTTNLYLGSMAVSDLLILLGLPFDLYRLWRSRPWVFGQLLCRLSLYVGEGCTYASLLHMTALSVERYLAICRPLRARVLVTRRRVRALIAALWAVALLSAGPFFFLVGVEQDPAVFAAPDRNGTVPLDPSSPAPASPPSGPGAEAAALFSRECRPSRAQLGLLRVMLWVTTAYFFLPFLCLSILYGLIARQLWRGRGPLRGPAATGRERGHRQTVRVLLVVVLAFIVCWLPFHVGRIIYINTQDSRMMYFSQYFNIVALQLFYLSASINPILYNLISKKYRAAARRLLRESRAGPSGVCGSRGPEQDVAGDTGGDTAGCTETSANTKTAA
The experiment in a line: Motilin receptor binding test (125I motilin, rabbit duodenum protein sample). The settings on record: 125I motilin 25 pM, concentration reducing specific binding by 50%. On the procedure: Motilin receptor binding test
A motilin receptor binding test was conducted in the following manner [Vantrappen et al., Regul. Peptides, 15, 143 (1986)]. The duodenum was extracted from a slaughtered rabbit, had the mucous membrane separated and homogenized in 50 mM Tris buffer to prepare a protein sample. The protein sample was incubated together with ^125I motilin 25 pM and thereafter the radioactivity bound to the protein was measured. Specific binding was defined as the difference between the radioactivity in the case of adding a great excess amount of motilin (10^−7 M) and that in the case of no adding. The activity of the compound was expressed by IC50 (in nM), as the concentration sufficient to reduce the specific binding by 50%.

For `CC(C)[C@@H](C(=O)N[C@@H](Cc1ccc(O)c(C(C)(C)C)c1)C(=O)NCO)N(C)C(=O)[C@@H](N)Cc1ccc(F)cc1` [Example 122, Phe(4-F)-N-Me-Val-Tyr(3-tBu)-NHCH2OH], the Kb in assay [1] is 1 nM. At motilin receptor, the half-inhibitory concentration (IC50) was 0.47 nM.
Turning to `CCN(C(=O)[C@H](C(C)C)N(C)C(=O)[C@H](Cc1ccc(F)cc1)NC)[C@@H](Cc1ccc(O)c(C(C)(C)C)c1)C(N)=O` [Example 40, N-Me-Phe(4-F)-N-Me-Val-N-Et-Tyr(3-tBu)-NH2], in assay [1], the Kb is 2.51 nM. For the same compound, at motilin receptor, the 50% inhibitory concentration (IC50) is 1.6 nM.
As to `CCC[C@@H](C(=O)N(C)[C@@H](Cc1ccc(O)c(C(C)(C)C)c1)C(N)=O)N(C)C(=O)[C@@H](N)Cc1ccc(F)cc1` [Example 140, Phe(4-F)-N-Me-Nva-N-Me-Tyr(3-tBu)-NH2] (H-[Phe(4-F)]-[NMeNva]-[NMeTyr(3-tBu)]-NH2), the Kb in assay [1] is 6.31 nM. The compound further had a half-maximal inhibitory concentration (IC50) on motilin receptor of 4 nM.
For `CCC(C)[C@@H](C(=O)N(C)[C@@H](Cc1ccc(O)c(C(C)(C)C)c1)C(N)=O)N(C)C(=O)[C@@H](N)Cc1ccc(F)cc1` (stereo partly drawn) [Example 142, Phe(4-F)-N-Me-Ile-N-Me-Tyr(3-tBu)-NH2] (H-[Phe(4-F)]-[NMeIle(3ξ)]-[NMeTyr(3-tBu)]-NH2) the same measures were 2.51 nM and 0.62 nM.
For `CC(C)[C@@H](C(=O)N(C)[C@@H](Cc1ccc(O)c(C(C)(C)C)c1)C(N)=O)N(C)C(=O)[C@@H](N)Cc1ccc(Cl)cc1` [Example 2, Phe(4-Cl)-N-Me-Val-N-Me-Tyr(3-tBu)-NH2] (H-[Phe(4-Cl)]-[NMeV]-[NMeTyr(3-tBu)]-NH2), the Kb in assay [1] is 2 nM. For the same compound, the IC50 at motilin receptor was 0.71 nM.
In the case of `CCNC(=O)[C@H](Cc1ccc(O)c(C(C)(C)C)c1)N(C)C(=O)[C@H](C(C)C)N(C)C(=O)[C@H](Cc1ccc(F)cc1)NCC` [Example 106, N-Et-Phe(4-F)-N-Me-Val-N-Me-Tyr(3-tBu)-NHEt], the Kb in assay [1] was 0.158 nM. This compound also registered an IC50 on motilin receptor of 0.62 nM.
Consider `CC(C)[C@@H](C(=O)N[C@@H](Cc1ccc(O)c(C(C)(C)C)c1)C(N)=O)N(C)C(=O)[C@@H](N)Cc1ccc(F)cc1` [Example 28, Phe(4-F)-N-Me-Val-Tyr(3-tBu)-NH2] (H-[Phe(4-F)]-[NMeV]-[Tyr(3-tBu)]-NH2), for which the Kb in assay [1] is 1 nM. The same compound returned an IC50 at motilin receptor of 0.52 nM.
As to `CC(C)[C@@H](C(=O)N[C@@H](Cc1ccc(O)c(C(C)(C)C)c1)c1nccs1)N(C)C(=O)[C@@H](N)Cc1ccc(F)cc1` (single isomer, unassigned) [Example 23, 2-((2-amino-3-(4-fluorophenyl)propionyl)-N-methylamino)-3-methylbutyric acid 2-(3-tert-butyl-4-hydroxyphenyl)-1-(thiazol-2-yl)ethylamide], the Kb in assay [1] was 0.501 nM. The same compound registered a 50% inhibitory concentration (IC50) at motilin receptor of 0.67 nM.
On to `CCN[C@@H](Cc1ccc(F)cc1)C(=O)N(C)[C@H](C(=O)N(C)[C@@H](Cc1ccc(O)c(C(C)(C)C)c1)C(N)=O)C(C)C` [Example 35, N-Et-Phe(4-F)-N-Me-Val-N-Me-Tyr(3-tBu)-NH2], for which the Kb in assay [1] is 1.58 nM. In addition, at motilin receptor, the half-maximal inhibitory concentration (IC50) worked out at 1.7 nM.
Consider `CC(C)[C@@H](C(=O)N(C)C(Cc1ccc(O)c(C(C)(C)C)c1)C(N)=O)N(C)C(=O)C(N)Cc1c[nH]c2ccccc12` (stereo partly drawn) [Example 183, Trp-N-Me-Val-N-Me-Tyr(3-tBu)-NH2] (H-[ξW]-[NMeV]-[ξNMeTyr(3-tBu)]-NH2), for which the Kb in assay [1] is 0.316 nM. In addition, at motilin receptor, the IC50 was 0.57 nM.
`CCN[C@@H](Cc1ccc(F)cc1)C(=O)N(C)[C@H](C(=O)N(C)[C@@H](Cc1ccc(O)c(C(C)(C)C)c1)C(=O)NC)C(C)C` [Example 38, N-Et-Phe(4-F)-N-Me-Val-N-Me-Tyr(3-tBu)-NHMe]: in assay [1], the Kb is 6.31 nM. Also, the half-maximal inhibitory concentration (IC50) at motilin receptor is 3 nM.
As for `CC(C)[C@@H](C(=O)N(C)[C@@H](Cc1ccc(O)c(C(C)(C)C)c1)C(=O)NC1CC1)N(C)C(=O)[C@@H](N)Cc1ccc(F)cc1` [Example 121, Phe(4-F)-N-Me-Val-N-Me-Tyr(3-tBu)-NH-c-Pr], the Kb in assay [1] is 1.26 nM. The same compound showed an IC50 on motilin receptor of 0.41 nM.
